In patent publication US9340559B2, “Proteasome inhibitor delanzomib for use in the treatment of lupus” (Cephalon, Inc., priority 2011, dated 2016):

Legend:
NZM mice [1] = assay: Serum C3 complement ELISA, NZM mice (Example 2)
NZM mice [2] = assay: Body weight progression, NZM mice (Example 2); assay type: in vivo, mouse; conditions: G6 50 mg/kg ip, 1× wk
NZM mice [3] = assay: Splenomegaly (spleen mass), NZM mice (Example 2); assay type: in vivo, mouse
NZM mice [4] = assay: Urinalysis: total urine protein (proteinuria), NZM mice (Example 2); assay type: in vivo, mouse; conditions: G6 50 mg/kg ip, 1× wk
NZM mice [5] = assay: Survival, NZM lupus nephritis model, ip dosing (Example 2); assay type: in vivo, mouse; conditions: G6 50 mg/kg ip, 1× wk
NZM mice [6] = assay type: in vivo, mouse

SMILES: O=P1(N(CCCl)CCCl)NCCCO1 (centres unmarked) [CTX, Cyclophosphamide]
- Serum C3 complement AUC, percent change vs vehicle (NZM mice [1]; G6 50 mg/kg ip, 1× wk): −18%
- p, serum C3 complement levels vs G8 Dex 1.5 mg/kg 3× wk ip (NZM mice [1]; G7 50 mg/kg 1× wk ip): p < 0.01
- Body mass AUC, percent change vs vehicle (NZM mice [2]): +4%
- Spleen mass EOS, percent change vs vehicle (NZM mice [3]; G6 50 mg/kg ip, 1× wk): −42%
- spleen mass compared to once-a-week bortezomib (NZM mice [3]; p<0.05): reduced spleen mass significantly
- Urine proteinuria AUC, percent change vs vehicle (NZM mice [4]): −68%
- EOS survival, percent live mice from original number (NZM mice [5]): 70%
- Cytokine IL-12 AUC, percent change vs vehicle (NZM mice [6]; G6 50 mg/kg ip, 1× wk): −78%
- Cytokine IL-13 AUC, percent change vs vehicle (NZM mice [6]; G6 50 mg/kg ip, 1× wk): 486%
- Cytokine IL-17A AUC, percent change vs vehicle (NZM mice [6]; G6 50 mg/kg ip, 1× wk): 508%
- Cytokine IP-10 AUC, percent change vs vehicle (NZM mice [6]; G6 50 mg/kg ip, 1× wk): 338%
- Cytokine MIG AUC, percent change vs vehicle (NZM mice [6]; G6 50 mg/kg ip, 1× wk): 359%
- Cytokine TNFα AUC, percent change vs vehicle (NZM mice [6]; G6 50 mg/kg ip, 1× wk): −25%
- p, serum IL-12p40/p70 concentration vs G5 Bortezomib 0.3 mg/kg 1× wk ip (NZM mice [6]; G7 50 mg/kg 1× wk ip): NS (NS = not significant (p > 0.05))
- p, serum IL-12p40/p70 concentration vs G6 Bortezomib 0.3 mg/kg 2× wk ip (NZM mice [6]; G7 50 mg/kg 1× wk ip): NS (NS = not significant (p > 0.05))
- p, serum IL-12p40/p70 concentration vs G8 Dex 1.5 mg/kg 3× wk ip (NZM mice [6]; G7 50 mg/kg 1× wk ip): NS (NS = not significant (p > 0.05))
- p, serum IL-12p40/p70 concentration vs G9 Vehicle 1× wk ip (NZM mice [6]; G7 50 mg/kg 1× wk ip): p < 0.001
- p, serum IL-13 concentration vs G5 Bortezomib 0.3 mg/kg 1× wk ip (NZM mice [6]; G7 50 mg/kg 1× wk ip): p < 0.001
- p, serum IL-13 concentration vs G6 Bortezomib 0.3 mg/kg 2× wk ip (NZM mice [6]; G7 50 mg/kg 1× wk ip): p < 0.001
- p, serum IL-13 concentration vs G8 Dex 1.5 mg/kg 3× wk ip (NZM mice [6]; G7 50 mg/kg 1× wk ip): p < 0.001
- p, serum IL-13 concentration vs G9 Vehicle 1× wk ip (NZM mice [6]; G7 50 mg/kg 1× wk ip): p < 0.001
- p, serum IL-17A concentration vs G5 Bortezomib 0.3 mg/kg 1× wk ip (NZM mice [6]; G7 50 mg/kg 1× wk ip): NS (NS = not significant (p > 0.05))
- p, serum IL-17A concentration vs G6 Bortezomib 0.3 mg/kg 2× wk ip (NZM mice [6]; G7 50 mg/kg 1× wk ip): p < 0.001
- p, serum IL-17A concentration vs G8 Dex 1.5 mg/kg 3× wk ip (NZM mice [6]; G7 50 mg/kg 1× wk ip): p < 0.001
- p, serum IL-17A concentration vs G9 Vehicle 1× wk ip (NZM mice [6]; G7 50 mg/kg 1× wk ip): p < 0.001
- p, serum IP-10 concentration vs G5 Bortezomib 0.3 mg/kg 1× wk ip (NZM mice [6]; G7 50 mg/kg 1× wk ip): P < 0.001
- p, serum IP-10 concentration vs G6 Bortezomib 0.3 mg/kg 2× wk ip (NZM mice [6]; G7 50 mg/kg 1× wk ip): p < 0.001
- p, serum IP-10 concentration vs G8 Dex 1.5 mg/kg 3× wk ip (NZM mice [6]; G7 50 mg/kg 1× wk ip): P < 0.001
- p, serum IP-10 concentration vs G9 Vehicle 1× wk ip (NZM mice [6]; G7 50 mg/kg 1× wk ip): p < 0.001
